Key:
[1] = poor aqueous solubility and good permeability; cited from earlier work
[2] = Pharmacokinetic studies in rabbits; type: in vivo; conditions: Albino, rabbit, plasma, po, 1 mg/kg

In the case of `CC(C)(C)NC(=O)[C@H]1CC[C@H]2[C@@H]3CC[C@H]4NC(=O)C=C[C@]4(C)[C@H]3CC[C@]12C` [FIN, (5alpha,17beta)-(1,1-dimethylethyl)-3-oxo-4-azaandrost-1-ene-17-carboxamide], the “Biopharmaceutics Classification System (BCS) class” value [1] is given as “Class II”, the AUC [2] is given as 782 ± 93.7 ng·h/mL and the Cmax [2] is given as 39.2 ± 9.92 ng/mL. It also gave a Tmax [2] of 3.5 ± 0.37 h, a half-life [2] of 11 ± 2.17 h and a k el [2] of 1.72e-05 s⁻¹.

Source: paper PMC5472428 (Drug Design, Development and Therapy, 2017)
